Experimental findings from patent US11859234B2, “Method of monitoring RNase L activity” (THE TRUSTEES OF PRINCETON UNIVERSITY, priority 2016, dated 2024) are described below.

The target in test [1] is T1, RNase L (Homo sapiens, UniProt Q05823).
T1 sequence (Q05823 1-741): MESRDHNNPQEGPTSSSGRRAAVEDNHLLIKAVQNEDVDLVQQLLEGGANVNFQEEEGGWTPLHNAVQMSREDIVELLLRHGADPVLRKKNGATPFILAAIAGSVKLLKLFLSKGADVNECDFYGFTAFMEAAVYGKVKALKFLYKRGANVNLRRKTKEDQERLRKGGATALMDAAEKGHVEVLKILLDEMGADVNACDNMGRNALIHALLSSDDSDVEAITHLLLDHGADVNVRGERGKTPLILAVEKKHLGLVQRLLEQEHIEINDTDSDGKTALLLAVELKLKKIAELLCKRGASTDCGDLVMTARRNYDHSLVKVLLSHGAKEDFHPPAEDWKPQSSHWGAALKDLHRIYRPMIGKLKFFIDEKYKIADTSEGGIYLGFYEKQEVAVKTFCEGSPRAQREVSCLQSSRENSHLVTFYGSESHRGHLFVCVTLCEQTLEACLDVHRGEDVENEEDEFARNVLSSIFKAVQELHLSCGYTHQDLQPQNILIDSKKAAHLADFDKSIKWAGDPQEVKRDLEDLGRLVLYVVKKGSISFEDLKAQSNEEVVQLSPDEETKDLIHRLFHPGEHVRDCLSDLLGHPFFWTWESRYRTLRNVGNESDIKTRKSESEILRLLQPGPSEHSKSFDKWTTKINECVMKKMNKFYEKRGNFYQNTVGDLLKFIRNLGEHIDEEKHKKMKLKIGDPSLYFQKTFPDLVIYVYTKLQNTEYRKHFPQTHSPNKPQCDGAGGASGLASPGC
Nature of the test: RNA sequencing of RNase L cleavage products in permeabilized T47D cells stimulated with 2-5A. Type of test: cell-based. On the set-up: endogenous in cells. Conditions: 1 μM 2-5A for 3 minutes compared with 1 minute. Here is the method:
Initially, approximately 500 ng-1 μg miRvana purified small RNAs is ligated to the ligation adapter (5′-[…]-3′(SEQ ID NO: 1), underlined portion is RNA) using RtcB. It is contemplated that the adaptor has a 3′-desthiobiotin modification. The ligated RNAs are separated from free adapter by resolving on 10% urea PAGE by staining gel and excising all RNA larger than the free adapter. RNA is eluted from gel slices overnight at 4° C. in TE buffer pH 7.5 supplemented with 0.05% Triton X-100. Glycogen is added to RNAs and precipitated with 3 volumes of 100% ethanol and 1/10 volume 3M sodium acetate pH 5.2. The sample is then incubated on dry ice for 30 minutes. […]
Libraries are assessed on an Agilent High Sensitivity DNA chip, and equimolar amounts of libraries pooled and resolved on 6% native PAGE and visualized by gel staining. […] Libraries are now ready for sequencing on the Illumina HiSeq 2000 platform.
The RNA sequencing experiments were also carried out in HeLa cells that overexpress RNase L (RNLoe) and in T47D cells derived from human breast cancer and that have been permeablized and stimulated for 1 minute or 3 minutes with 1 μM 2-5A, which specifically activates RNase L but not other pathways. Results of the primary types of cleavage products detected, e.g., tRNA-His, tRNA-Pro, RNY1, RNY3, RNY4 and RNY5, were similar. […]

In test [2] the target is T1, RNase L. Nature of the test: qPCR detection of tRNA His-GUG-36 RNase L cleavage product in poly I:C stimulated HeLa cells. Set-up: endogenous in cells; host or cells: HeLa cells. Type of test: cell-based. Conditions: total RNA, RtcB ligation, qPCR with His-GUG-36-2 primer, ΔΔCt method (FIG. 4F). Here is the method: Reaction components useful in the ligation reaction include the following: 2-500 ng purified RNA, 30 μM RtcB ligase, 1 U/μL RNase inhibitor, 10 μM ligation adapter, 100 μM GTP, 20 mM HEPES pH 7.5, 2 mM MnCl2, 110 mM NaCl, 4 mM DTT, 2.2% glycerol (carried into the reaction with RtcB and RNase inhibitor). The standard reaction volume is 10 μL with incubation for 1 hour at 37° C.
After incubation 1 μL of 33 mM EDTA is added followed by a brief room temperature incubation (usually 5-10 minutes) giving a final concentration of EDTA of 3 mM. EDTA is added to chelate Mn^2+ ions that might interfere in downstream steps as well as to stop the ligation reaction.
1 μL of EDTA quenched ligation reaction is mixed with dNTPs and 10 picomoles (pmol) of RT primer in 10 μL volume. The mixture is incubated at 65° C. for 5 minutes then placed on ice (optional). The remaining components are added for a 20 μL reverse transcription reaction: RT buffer, 0.2 U μL RNase inhibitor, Reverse transcriptase (added last), and H2O for 20 μL final volume and incubated according to the RT manufacturer's specifications. […]
For the qPCR, total purified RNA from non-stimulated and poly I:C stimulated HeLa cells was serially diluted, ligated to the adapter with RtcB, reverse transcribed, and detected by qPCR using the His-GUG-36-2 primer and qPCR reverse primer.
A general note: In qPCR the cycle at which signal appears reflects the starting amount.

In the case of 2′,5′-oligoadenylate [2-5A], on RNase L [1], the “RNA cleavage profile of RNase L products” value is given as “enhanced induction of RNA cleavage of the same products”.

Turning to “polyinosinic-polycytidylic acid [polyI:C]”, the “number of tRNA His-GUG-36-2 cleavage products compared to non-stimulated cells” value at RNase L [2] was “significantly increased”.
